# Measurements published in patent US20230159532A1, “PARATHYROID HORMONE (PTH) RECEPTOR ANTAGONISTS AND USES THEREOF” (Crinetics Pharmaceuticals, Inc., priority 2021, published 2023).
# Target: T1, human PTHR1 receptor (Homo sapiens, UniProt Q03431)
# T1 construct: purchased Eurofins HTS030M
# T1 sequence (Q03431 27-593): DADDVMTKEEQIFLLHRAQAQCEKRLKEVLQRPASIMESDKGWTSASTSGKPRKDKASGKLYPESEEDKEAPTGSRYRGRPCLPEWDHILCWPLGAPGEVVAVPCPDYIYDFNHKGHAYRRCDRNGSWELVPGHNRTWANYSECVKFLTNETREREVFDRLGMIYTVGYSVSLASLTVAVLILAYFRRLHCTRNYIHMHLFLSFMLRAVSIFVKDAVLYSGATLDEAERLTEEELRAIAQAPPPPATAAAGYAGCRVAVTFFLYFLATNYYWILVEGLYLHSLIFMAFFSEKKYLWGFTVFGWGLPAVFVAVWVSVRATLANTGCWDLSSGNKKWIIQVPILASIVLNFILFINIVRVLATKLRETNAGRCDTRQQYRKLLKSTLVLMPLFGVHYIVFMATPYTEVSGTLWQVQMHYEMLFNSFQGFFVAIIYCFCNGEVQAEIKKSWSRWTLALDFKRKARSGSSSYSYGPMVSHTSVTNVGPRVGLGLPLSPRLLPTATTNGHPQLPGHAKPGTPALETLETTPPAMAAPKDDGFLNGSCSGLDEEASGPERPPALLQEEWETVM
# Assay: Competitive antagonist binding assay for hPTH-R1 (radioactive competition binding, SPA beads)
# Settings: human PTHR1 membranes, [125I]-[Nle8,18,Tyr34]-PTH(1-34) 0.2 nM, 90 minutes at room temperature; read-out: hPTHR1 Ki
# Procedure, shortened: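 Human PTHR1 membranes on SPA beads incubated 90 min at room temperature with compound (typically 0-10,000 nM final) and 0.2 nM [125I]-[Nle8,18,Tyr34]-PTH(1-34) in HEPES buffer with MgCl2, CaCl2, BSA, Triton X-100 and protease inhibitors, pH 7.4. Scintillation signal read; Ki values derived.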
row,Ki,Compound
1,< 100 nM,"CCN1C(=O)N(c2ccc(NCCNC)cc2)c2cc(Cl)ccc2-c2cc(C)cnc21 [2-5, 13-chloro-8-ethyl-4-methyl-10-(4-{[2-(methylamino)ethyl]amino}phenyl)-6,8,10-triazatricyclo[9.4.0.0^2,7]pentadeca-1(11),2(7),3,5,12,14-hexaen-9-one]"
2,< 100 nM,"CCN1C(=O)N(c2c(F)cc(NCCNC[C@@H](C)O)cc2F)c2cc(C#N)ccc2-c2cc(F)cnc21 [1-203, 10-{2,6-difluoro-4-[(2-{[(2R)-2-hydroxypropyl]amino}ethyl)amino]phenyl}-8-ethyl-4-fluoro-9-oxo-6,8,10-triazatricyclo[9.4.0.0^2,7]pentadeca-1(11),2(7),3,5,12,14-hexaene-13-carbonitrile]"
3,< 100 nM,"CCN1C(=O)N(c2c(F)cc(NCCN[C@@H]3CC[C@@H]3O)cc2F)c2cc(C#N)ccc2-c2cc(C(F)(F)F)cnc21 [1-184, 10-{2,6-difluoro-4-[(2-{[(1R,2S)-2-hydroxycyclobutyl]amino}ethyl)amino]phenyl}-8-ethyl-9-oxo-4-(trifluoromethyl)-6,8,10-triazatricyclo[9.4.0.0^2,7]pentadeca-1(11),2(7),3,5,12,14-hexaene-13-carbonitrile]"

# Continued, compound first:
row,Compound,Ki
1,"CNCCNc1cc(F)c(N2C(=O)N(C(C)C)c3ncc(F)cc3-c3ccc(Cl)cc32)c(F)c1 [1-105, 13-chloro-10-(2,6-difluoro-4-{[2-(methylamino)ethyl]amino}phenyl)-4-fluoro-8-(propan-2-yl)-6,8,10-triazatricyclo[9.4.0.0^2,7]pentadeca-1(11),2(7),3,5,12,14-hexaen-9-one]",< 100 nM
2,"Cc1cc(Cl)cc2c1-c1cc(F)cnc1N(C)C(=O)N2c1c(F)cc(NCCNCCO)cc1F [1-76, 13-chloro-10-[2,6-difluoro-4-({2-[(2-hydroxyethyl)amino]ethyl}amino)phenyl]-4-fluoro-8,15-dimethyl-6,8,10-triazatricyclo[9.4.0.0^2,7]pentadeca-1(11),2(7),3,5,12,14-hexaen-9-one]",< 100 nM
3,"CCN1C(=O)N(c2c(F)cc(NCCNCCCC(=O)O)cc2F)c2cc(C#N)cc(F)c2-c2cc(F)cnc21 [1-104, 4-({2-[(4-{13-cyano-8-ethyl-4,15-difluoro-9-oxo-6,8,10-triazatricyclo[9.4.0.0^2,7]pentadeca-1(11),2(7),3,5,12,14-hexaen-10-yl}-3,5-difluorophenyl)amino]ethyl}amino)butanoic acid]",< 100 nM
4,"CCCN1C(=O)N(c2c(F)cc(NCCNCCO)cc2F)c2cc(Cl)ccc2-c2cc(Cl)cnc21 [1-49, 4,13-dichloro-10-[2,6-difluoro-4-({2-[(2-hydroxyethyl)amino]ethyl}amino)phenyl]-8-propyl-6,8,10-triazatricyclo[9.4.0.0^2,7]pentadeca-1(11),2(7),3,5,12,14-hexaen-9-one]",< 100 nM
5,"CCN1C(=O)N(c2c(F)cc(N3CC(N)C3)cc2F)c2cc(Cl)ccc2-c2cc(Cl)cnc21 [1-44, 10-[4-(3-aminoazetidin-1-yl)-2,6-difluorophenyl]-4,13-dichloro-8-ethyl-6,8,10-triazatricyclo[9.4.0.0^2,7]pentadeca-1(11),2(7),3,5,12,14-hexaen-9-one]",< 100 nM
6,"CNCCNc1cc(F)c(N2C(=O)N(C(C)C)c3ncc(F)cc3-c3c(F)cc(Cl)cc32)c(F)c1 [1-113, 13-chloro-10-(2,6-difluoro-4-{[2-(methylamino)ethyl]amino}phenyl)-4,15-difluoro-8-(propan-2-yl)-6,8,10-triazatricyclo[9.4.0.0^2,7]pentadeca-1(11),2(7),3,5,12,14-hexaen-9-one]",< 100 nM
7,"CCCN1C(=O)N(c2c(F)cc(NCCNC)cc2F)c2cc(Cl)ccc2-c2cc(Cl)cnc21 [1-40, 4,13-dichloro-10-(2,6-difluoro-4-{[2-(methylamino)ethyl]amino}phenyl)-8-propyl-6,8,10-triazatricyclo[9.4.0.0^2,7]pentadeca-1(11),2(7),3,5,12,14-hexaen-9-one]",< 100 nM
